These results are taken from patent US6838476B1, “Imidazoles with anti-inflammatory activity” (J. Uriach & Cia, SA, priority 1998, dated 2005).

One data set addresses T1, cyclooxygenase-2 (COX-2) (Homo sapiens, UniProt P35354).
T1 construct: 5 μL of LPS is also added (in order to induce COX-2 activy); from tissue; host or cells: heparinized human whole blood, LPS-stimulated, with aspirin added
T1 sequence (P35354 18-604): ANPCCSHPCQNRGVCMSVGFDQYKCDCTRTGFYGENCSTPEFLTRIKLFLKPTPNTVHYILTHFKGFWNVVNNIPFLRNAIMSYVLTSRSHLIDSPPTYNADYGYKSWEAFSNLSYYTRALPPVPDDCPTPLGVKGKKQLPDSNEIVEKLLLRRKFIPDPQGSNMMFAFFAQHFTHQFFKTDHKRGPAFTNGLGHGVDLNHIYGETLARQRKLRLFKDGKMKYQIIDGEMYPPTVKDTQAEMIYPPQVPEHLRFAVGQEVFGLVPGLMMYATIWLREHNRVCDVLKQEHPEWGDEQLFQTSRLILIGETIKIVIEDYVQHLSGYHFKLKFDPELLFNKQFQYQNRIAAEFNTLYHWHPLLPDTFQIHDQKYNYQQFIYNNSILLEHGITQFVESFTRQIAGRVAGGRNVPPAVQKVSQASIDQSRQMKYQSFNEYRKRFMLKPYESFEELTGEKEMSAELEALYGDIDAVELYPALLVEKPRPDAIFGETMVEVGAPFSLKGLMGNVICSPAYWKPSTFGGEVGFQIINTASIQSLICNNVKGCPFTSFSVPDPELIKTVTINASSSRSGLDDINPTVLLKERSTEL
Put plainly: Inhibition of cyclooxygenase-2 (COX-2) activity in human blood (prostaglandin E2 levels after LPS, aspirin added). The settings on record: for inhibition at 1 µM: read-out: % inhibition COX-2 (1 μM), 1 μM test compound; for inhibition at 10 µM: read-out: % inhibition COX-2 (10 μM), 10 μM test compound. It is filed as cell-based. How it is done:
(§1) Inhibition of cyclooxgenase-1 (COX-1) and cyclooxygenase-2 (COX-2) Activity in Human Blood
Blood is divided into two groups; one will be used to determine COX-1 activity and the other one for COX-2. The procedure to follow will be different in each case.
For COX-2, 3-mL tubes are prepared in duplicate containing 5 μL of the test compound (solution in DMSO) and 5 μL of vehicle in the case of blanks and controls. To each tube, 5 μL of a 2 mg/mL solution of aspirin in DMSO is also added (in order to inhibit COX-1 activity), and to all tubes except the blanks 5 μL of LPS is also added (in order to induce COX-2 activy). Finally, 1 mL of heparinized blood is added to each tube, and tubes are then stirred and placed in a thermostatized bath at 37° C. for 24 h. Then, tubes are centrifuged at 2000 g for 10 min at 4° C., the resulting plasma is collected and is frozen at −70° C. until use. COX-2 activity is determined by measuring prostaglandin E2 levels in the samples. The plasma stored at −70° C. is defrozen and prostaglandin E2 levels in these samples are determined using a kit (Kit Prostaglandin E2, Biotrak EIA system RPN222 Amershan), according to the manufacturer's instructions.

For the next data set, the target named is T2, cyclooxygenase-1 (COX-1) (Homo sapiens, UniProt P23219).
T2 construct: from tissue; host or cells: heparinized human whole blood
In words: Inhibition of cyclooxygenase-1 (COX-1) activity in human blood (thromboxane B2 levels after ionophore A23187). The settings on record: read-out: % inhibition COX-1 (10 μM), 10 μM test compound. It is filed as cell-based. How it is done:
as §1
Heparinized human blood from healthy volunteers who had not taken non-steroidal anti-inflammatory drugs (NSAIDs) for a week, and neither alcohol nor xanthines 24 h before blood collection, is used. Blood is divided into two groups; one will be used to determine COX-1 activity and the other one for COX-2. The procedure to follow will be different in each case.
For COX-1, 12-mL tubes are used. 5 μL of the test compound (in DMSO solution; in duplicate) are placed in each tube. Aditionally two tubes for blanks and two tubes for controls containing 5 μL of DMSO are used. Next, 1 mL of blood is added to each tube and they are stirred. The tubes are placed in a thermostatized bath at 37° C. for 5 h. Then, 5 μL of 5 mM ionophore A23187 is added to each tube, except to the blanks, and tubes are incubated for 30 min more at 37° C. After this time, the tubes are placed in ice and 100 μL of a 100 mM EGTA solution is added to stop the reaction. 2.5 mL of methanol is added to each tube to reach a final concentration of 70%. The tubes are stirred and frozen at −70° C. till their use. The COX-1 activity is determined by measuring thromboxane B2 levels in the samples. Blood is defrozen and centrifuged at 2000 g for 10 min at 4° C. 1 mL of supematant is evaporated under nitrogen to dryness. The solid residue thus obtained is resuspended in 1 mL of saline and the thromboxane B2 levels in these samples are determined using a kit (Kit Thromboxane B2, Biotrak EIA system RPN220 Amershan), according to the manufacturer's instructions.

Structures can show the parent of a compound that is named as a salt.

T2 sequence (P23219 24-599): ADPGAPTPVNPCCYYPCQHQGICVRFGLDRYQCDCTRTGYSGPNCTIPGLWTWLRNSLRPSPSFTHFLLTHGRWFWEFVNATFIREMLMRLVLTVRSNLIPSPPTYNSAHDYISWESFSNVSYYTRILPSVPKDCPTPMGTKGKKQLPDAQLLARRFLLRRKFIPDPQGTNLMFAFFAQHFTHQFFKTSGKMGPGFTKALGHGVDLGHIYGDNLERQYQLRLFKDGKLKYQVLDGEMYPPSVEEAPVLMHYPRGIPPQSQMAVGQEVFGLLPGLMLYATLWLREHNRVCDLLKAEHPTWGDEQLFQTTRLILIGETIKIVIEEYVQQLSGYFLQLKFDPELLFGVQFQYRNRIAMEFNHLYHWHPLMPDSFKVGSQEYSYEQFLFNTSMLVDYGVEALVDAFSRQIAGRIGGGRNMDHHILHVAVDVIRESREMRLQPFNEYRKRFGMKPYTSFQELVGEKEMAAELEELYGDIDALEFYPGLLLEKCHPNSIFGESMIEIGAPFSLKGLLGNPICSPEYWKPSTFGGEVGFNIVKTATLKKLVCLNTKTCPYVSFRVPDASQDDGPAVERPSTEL

In general, melting point refers to the temperature of the solid-liquid transition. In the case of `CCOc1cc(OCC)cc(-c2cncn2-c2ccc(S(C)(=O)=O)cc2)c1` [Example 1(21), 5-(3,5-Diethoxyphenyl)-1-(4-methylsulfonylphenyl)imidazole], the melting point was in the range of 100 to 101 °C.

The inhibition is the relative decrease from the control value, in per cent. In the case of `CCOc1ccc(-c2c(Cl)ncn2-c2ccc(S(C)(=O)=O)cc2)cc1` [4(22), 4-Chloro-5-(4-ethoxyphenyl)-1-(4-methylsulfonylphenyl)imidazole], on cyclooxygenase-2 (COX-2), the inhibition at 1 µM came out at 100% and the inhibition at 10 µM was 100%. Besides, the inhibition at 10 µM at cyclooxygenase-1 (COX-1) was determined as 72.1%.

Regarding `CS(=O)(=O)c1ccc(-n2cnc(Br)c2-c2ccc(F)cc2)cc1` [Example 5, 4-Bromo-5-(4-fluorophenyl)-1-(4-methylsulfonylphenyl)imidazole], the inhibition at 1 µM at cyclooxygenase-2 (COX-2) is 85.2%. The inhibition at 10 µM is 100% on cyclooxygenase-2 (COX-2) and 33.8% on cyclooxygenase-1 (COX-1).

In turn, `Cc1ccc(-c2c(Cl)ncn2-c2ccc(S(C)(=O)=O)cc2)cc1Cl` (as salt: HCl) [4(13), 4-Chloro-5-(3-chloro-4-methylphenyl)-1-(4-methylsulfonylphenyl)-imidazole] displayed a melting point of 181 to 182 °C.

Consider `Cc1ccc(-c2c(Cl)ncn2-c2ccc(S(C)(=O)=O)cc2)cc1F` [4(8), 4-Chloro-5-(3-fluoro-4-methylphenyl)-1-(4-methylsulfonylphenyl)-imidazole], for which, at cyclooxygenase-2 (COX-2), the inhibition at 1 µM was found to be 75.1% and the inhibition at 10 µM worked out at 100%. In addition, on cyclooxygenase-1 (COX-1), the inhibition at 10 µM is 47.5%.

`COCc1cccc(-c2c(Cl)ncn2-c2ccc(S(C)(=O)=O)cc2)c1` (as salt: HCl) [4(14), 4-Chloro-5-(3-methoxymethylphenyl)-1-(4-methylsulfonylphenyl)-imidazole] returned a melting point of 178 °C.

For `CC(=O)Nc1ccc(-c2[nH]c(-c3ccc(S(C)(=O)=O)cc3)nc2Cl)cc1` [Example 18, 5-(4-Acetylaminophenyl)-4-chloro-(4-methylsulfonylphenyl)imidazole], the melting point lay in the range of 238 to 241 °C.

The compound `CS(=O)(=O)c1ccc(-n2cncc2-c2ccc(OC(F)(F)F)cc2)cc1` [Example 1(10), 1-(4-Methylsulfonylphenyl)-5-(4-trifluoromethoxyphenyl)imidazole] gave a melting point of 141 to 142 °C.

In turn, `CCCOc1ccc(-c2cncn2-c2ccc(S(C)(=O)=O)cc2)cc1` [Example 1(20), 1-(4-Methylsulfonylphenyl)-5-(4-propoxyphenyl)imidazole] came in with a melting point of 167 to 169 °C.

Take `Cc1ccc(-c2cncn2-c2ccc(S(C)(=O)=O)cc2)cc1F` [Example 1(8), 5-(3-Fluoro-4-methylphenyl)-1-(4-methylsulfonylphenyl)imidazole]: the melting point amounted to 147 °C.

On to `CS(=O)(=O)c1ccc(-c2cnc(Cl)n2-c2ccc(F)cc2)cc1` [Example 7, 2Chloro-1-(4-fluorophenyl)-5-(4-methylsulfonylphenyl)imidazole], for which the inhibition at 1 µM on cyclooxygenase-2 (COX-2) amounted to 85.6%. In addition, the inhibition at 10 µM on cyclooxygenase-2 (COX-2) was determined as 100%; on cyclooxygenase-1 (COX-1), 60.1%.

With `CS(=O)(=O)c1ccc(-n2cnc(Cl)c2-c2cnc(Cl)c(Cl)c2)cc1` [4(19), 4-Chloro-5-(5,6-dichloro-3-pyridyl)-1-(4-methylsulfonylphenyl)imidazole], the melting point was 223 to 230 °C.

In turn, `CS(=O)(=O)c1ccc(-n2cncc2-c2ccc(Cl)cc2)cc1` [Example 1(15), 5-(4-Chlorophenyl)-1-(4-methylsulfonylphenyl)imidazole] had a melting point of 192 to 193 °C.

`CS(=O)(=O)c1ccc(-n2cncc2-c2ccc(Cl)nc2)cc1` [Example 1(16), 5-(6-Chloro-3-pyridyl)-1-(4-methylsulfonylphenyl)imidazole]: the melting point lay within 191 to 192 °C.

`CS(=O)(=O)c1ccc(-n2cncc2-c2ccccc2)cc1` [Example 1(3), 1-(4-Methylsulfonylphenyl)-5-phenylimidazole] gave a melting point of 164 °C.

Regarding `NS(=O)(=O)c1ccc(-n2cncc2-c2ccc(F)cc2)cc1` [Example 14, 4-[5-(4-Fluorophenyl)imidazol-1-yl]benzenesulfonamide], the melting point was 196 to 197 °C.

In turn, `COc1ccc(-c2cncn2-c2ccc(S(C)(=O)=O)cc2)c(Cl)n1` [Example 1(18), 5-(2-Chloro-6-methoxy-3-pyridyl)-1-(4-methylsulfonylphenyl)imidazole] yielded a melting point of 192 to 198 °C.

The compound `CS(=O)(=O)c1ccc(-n2cncc2-c2ccc(F)cc2F)cc1` [Example 1(2), 5-(2,4-Difluorophenyl)-1-(4-methylsulfonylphenyl)imidazole] showed a melting point of 119 °C.

In turn, `Cc1ccc(-c2cncn2-c2ccc(S(C)(=O)=O)cc2)cc1` [Example 1(1), 5-(4-Methylphenyl)-1-(4-methylsulfonylphenyl)imidazole] registered a melting point of 156 °C.

Consider `COc1cc(-c2cncn2-c2ccc(S(C)(=O)=O)cc2)ccc1C` [Example 1(14), 5-(3-Methoxy-4-methylphenyl)-1(4-methylsulfonylphenyl)imidazole], for which the melting point lay in the range of 174 to 175 °C.

Turning to `CS(=O)(=O)c1ccc(-n2cnc(Cl)c2-c2ccc(Cl)nc2)cc1` (as salt: HCl) [4(16), 4-Chloro-5-(6-chloro-3-pyridyl)-1-(4-methylsulfonylphenyl)imidazole], the melting point was 223 °C.

For the compound `CS(=O)(=O)c1ccc(-n2cncc2-c2cnc(Cl)c(Cl)c2)cc1` [Example 1(19), 5-(5,6-Dichloro-3-pyridyl)-1-(4-methylsulfonylphenyl)imidazole], the melting point was 192 to 198 °C.

Take `COc1ccc(-c2cncn2-c2ccc(S(C)(=O)=O)cc2)cc1` [Example 1(5), 5-(4-Methoxyphenyl)-1-(4-methylsulfonylphenyl)imidazole]: the melting point is 185 to 187 °C.

Compound `CS(=O)(=O)c1ccc(-n2cncc2-c2ccccc2F)cc1` [Example 1(9), 5-(2-Fluorophenyl)-1(4-methylsulfonylphenyl)imidazole] showed a melting point of 188 to 189 °C.

On to `CS(=O)(=O)c1ccc(-n2cnc(Cl)c2-c2ccc(Cl)c(Cl)c2)cc1` [4(4), 4-Chloro-5-(3,4-dichlorophenyl)-1(4-methylsulfonylphenyl)imidazole], for which the melting point lay in the range of 156 to 157 °C.

As for `CSc1ccc(-c2cncn2-c2ccc(S(C)(=O)=O)cc2)cc1` [Example 1(24), 5-(4-Methylsulfanylphenyl)-1-(4-methylsulfonylphenyl)imidazole], the melting point fell in the range of 153 to 155 °C.

`NS(=O)(=O)c1ccc(-n2cnc(Cl)c2-c2ccc(Cl)c(Cl)c2)cc1` [13(2), 4-[4-Chloro-5-(3,4-dichlorophenyl)imidazol-1-yl]benzenesulfonamide]: the melting point was determined as 251 °C.

With `CS(=O)(=O)c1ccc(-c2cnc(Cl)n2-c2ccccc2)cc1` [Example 11, 2-Chloro-5-(4-methylsulfonylphenyl)-1-phenylimidazole], the melting point lay in the range of 185 to 193 °C.
